These are literature values, as cited in US20070281345A1, “Enzymatic Method of Making Aldehydes from Fatty Acids” (Archer-Daniels-Midland Company, priority 2006, published 2007).

The conditions of the data set: AOCS Method Tg1a-67 (determined) or Cd1c-85 (calculated).

Turning to `CCCCC/C=C\C/C=C\C/C=C\C/C=C\CCCC(=O)O` [arachidonic acid], the iodine value entry was “greater than the iodine value of linoleic acid”.
With `CCCCCCCC/C=C\CCCCCCCC(=O)O` [oleic acid], the iodine value is recorded as 89.
For `CCCCC/C=C\C/C=C\CCCCCCCC(=O)O` [linoleic acid], the iodine value is 173.
Take `CCC=CCC=CCC=CCC=CCC=CCC=CCCC(=O)O` [docosahexaenoic acid, 4,7,10,13,16,19-docosahexaenoic acid]: the iodine value entry is reported as “greater than the iodine value of linoleic acid”.
On to `CCC=CCC=CCC=CCC=CCC=CCCCC(=O)O` [eicosapentaenoic acid, 5,8,11,14,17-eicosapentaenoic acid], for which the iodine value entry is “greater than the iodine value of linoleic acid”.
